Source: patent publication US20230372381A1, “COMPOSITIONS AND METHODS UTILIZING PROTEIN INHIBITORS FOR […] INHIBITION AND TREATMENT OF SARS-CoV-2” (Rensselaer Polytechnic Institute, priority 2020, published 2023)
Entries after “also recorded” stand apart in the source; their conditions may differ. Where two headings read alike, the source gives them in different places.

Columns and labels:
[1] = target: SARS-CoV-2 PL^pro (Severe acute respiratory syndrome coronavirus 2, UniProt P0DTD1); assay: PL^pro fluorescence proteolysis assay (zRLRGG/AMC substrate); format: biochemical; details: for Relative PL^pro Inhibition: estimated IC50 class
[2] = target: T1, SARS-CoV-2 M^pro (Severe acute respiratory syndrome coronavirus 2, UniProt P0DTD1); assay: M^pro protease inhibition (FRET assay); format: biochemical; details: for Relative M^pro Inhibition: estimated IC50 class
[3] = test system: SARS-CoV-2; assay: Combination antiviral (synergy) assay with remdesivir; format: cell-based; details: for interaction with remdesivir (additive or synergistic): inhibition of SARS-CoV-2 replication in combination with remdesivir; for Synergy Score: combination with remdesivir, SynergyFinder, ZIP method
[4] = test system: SARS-CoV-2; assay: SARS-CoV-2 viral replication assay in Vero E6 cells; format: cell-based
[5] = in vitro; details: human
[6] = test system: SARS-CoV-2; assay: microbe, parasite or virus in culture; format: cell-based
[7] = in vitro; details: African green monkey
Method: (§1) Cytotoxicity was also performed using the MTT assay (Roche), according to the manufacturer's instructions. Cytotoxicity was performed in uninfected VeroE6 cells with same compound dilutions and concurrent with viral replication assay. All assays were performed in biologically independent triplicates.

[8] = test system: Vero E6 cells; assay: Cytotoxicity MTT assay in Vero E6 cells; details: cytotoxicity, Vero E6 Cells
Method: as §1

[9] = target: T1, SARS-CoV-2 M^pro; assay: M^pro 1D 1H-NMR proteolysis assay; format: biochemical; details: 50 μM inhibitor
[10] = Cytotoxicity in HEK 293T cells; details: human
[11] = Cytotoxicity MTT assay in Vero E6 cells; details: African green monkey
Method: as §1

[12] = test system: HEK 293T cells; assay: Cytotoxicity in HEK 293T cells; details: cytotoxicity, HEK 293T Cells
[13] = Severe acute respiratory syndrome coronavirus 2, Vero C1008, viral replication, Vero E6 Cells, read-out: IC50
[14] = Severe acute respiratory syndrome coronavirus 2, viral replication, HEK 293T Cells (hACE2-293T), read-out: IC50
[15] = Severe acute respiratory syndrome coronavirus 2, Vero C1008
[16] = Severe acute respiratory syndrome coronavirus 2, HEK-293T

| Structure (SMILES) | inhibition of PL^pro protease activity (words) [1] | inhibition of M^pro activity (words) [2] | interaction with remdesivir (additive or synergistic) [3] | IC50 [4, 13] [µM] | Relative PL^pro Inhibition [1] | CC50 [5] [µM] | Relative M^pro Inhibition [2] | IC50 [6, 14] [µM] | Synergy Score [3] | CC50 [8] [µM] | M^pro inhibition in the NMR assay [9] | further results |
| --- | --- | --- | --- | --- | --- | --- | --- | --- | --- | --- | --- | --- |
| CC(=O)Nc1ccc(C)c(C(=O)N[C@H](C)c2cccc3ccccc23)c1 [Compound 6] | specifically inhibits PL^pro | not M^pro | synergy with remdesivir |  |  |  |  |  |  |  |  |  |
| Cc1cnc(C(=O)N[C@H]2CCCCC/C=C\[C@@H]3C[C@@]3(C(=O)NS(=O)(=O)C3CC3)NC(=O)[C@@H]3C[C@@H](Oc4nc5ccccc5c5ccccc45)CN3C2=O)cn1 [PAR, paritaprevir] | did inhibit PL^pro protease activity | not M^pro | synergistic | 6 | moderate (moderate to an estimated IC50 in the range 20-50 μM) | > 100 | none (none indicates no observed inhibition of protease activity at drug concentrations of 50 μM) | 0.55 | +17.3 |  |  | interaction with remdesivir (additive or synergistic) ([3]; listed as paritaprevir): synergized with remdesivir; CC50 [7]: > 100 µM |
| COc1ccc2c(O[C@@H]3C[C@H]4C(=O)N[C@]5(C(=O)NS(=O)(=O)C6CC6)C[C@H]5/C=C\CCCCN(C)C(=O)[C@@H]4C3)cc(-c3nc(C(C)C)cs3)nc2c1C [SIM, simeprevir] | did inhibit PL^pro protease activity | moderately inhibit; also recorded: inhibited both M^pro and PL^pro | synergistic | 4.2 | strong (Strong inhibition corresponds to an estimated IC50 < about 20 μM) | > 50 | moderate (moderate to an estimated IC50 in the range 20-50 μM) | 2.3 | +30.2 | 2.1 | moderate inhibitors of M^pro | interaction with remdesivir (additive or synergistic) ([3]; listed as simeprevir): synergized with remdesivir |
| CC[C@@H]1C[C@]1(NC(=O)[C@@H]1C[C@@H]2CN1C(=O)[C@H](C(C)(C)C)NC(=O)OCC(C)(C)CCCCc1cccc3c1CN(C3)C(=O)O2)C(=O)NS(=O)(=O)C1CC1 [VAN, vaniprevir] |  |  | synergistic |  | strong (Strong inhibition corresponds to an estimated IC50 < about 20 μM) |  | strong (Strong inhibition corresponds to an estimated IC50 < about 20 μM) |  | +10.9 | 4.3 | inhibitory activity comparable to telaprevir | CC50 [10]: > 50 µM; IC50 [4, 15]: 6.2 µM; inhibition of PL^pro protease activity (words) ([1]; listed as Vaniprevir): good inhibitor of both M^pro and PL^pro; inhibition of PL^pro protease activity (words) ([1]; listed as vaniprevir): did inhibit PL^pro protease activity; inhibition of M^pro activity (words) ([2]; listed as Vaniprevir): good inhibitor of both M^pro and PL^pro; inhibition of M^pro activity (words) ([2]; listed as vaniprevir): inhibited both M^pro and PL^pro; IC50 [6, 16]: 3 µM; interaction with remdesivir (additive or synergistic) ([3]; listed as vaniprevir): synergized with remdesivir |
| C=C[C@@H]1C[C@]1(NC(=O)[C@@H]1C[C@@H](Oc2ncc(OC)c3ccc(Cl)cc23)CN1C(=O)[C@@H](NC(=O)OC(C)(C)C)C(C)(C)C)C(=O)NS(=O)(=O)C1CC1 [asunaprevir] |  | moderately inhibit |  |  |  |  |  |  |  |  |  |  |
| CCCC[C@H](NC(=O)[C@@H]1[C@@H]2[C@H](CN1C(=O)[C@@H](NC(=O)NC1(CS(=O)(=O)C(C)(C)C)CCCCC1)C(C)(C)C)C2(C)C)C(=O)C(=O)NC1CC1 [NAR, narlaprevir] |  |  |  |  |  |  |  |  | −3.6 |  |  | CC50 [11]: > 20 µM; CC50 [12]: 72 µM; IC50 [4, 15]: 7.7 µM; IC50 [6, 16]: 15 µM |
| CC(C)(C)NC(=O)N[C@H](C(=O)N1C[C@H]2[C@@H]([C@H]1C(=O)NC(CC1CCC1)C(=O)C(N)=O)C2(C)C)C(C)(C)C (stereo partly drawn) [BOC, boceprevir] |  |  |  | 19.6 |  | > 50 |  | 5.4 | −7.6 |  |  | CC50 [7]: > 50 µM |
| C=C[C@@H]1C[C@]1(NC(=O)[C@@H]1C[C@@H]2CN1C(=O)[C@H](C(C)(C)C)NC(=O)O[C@@H]1C[C@H]1CCCCCc1nc3ccc(OC)cc3nc1O2)C(=O)NS(=O)(=O)C1CC1.O [GRZ, grazoprevir] | did inhibit PL^pro protease activity | moderately inhibit; also recorded: inhibited both M^pro and PL^pro | synergistic |  | moderate (moderate to an estimated IC50 in the range 20-50 μM) |  | moderate (moderate to an estimated IC50 in the range 20-50 μM) |  | +25.0 | > 50 | moderate inhibitors of M^pro | CC50 [12]: > 50 µM; IC50 ([4]; viral replication, Vero E6 Cells, read-out: IC50): 10.8 µM; IC50 ([6]; viral replication, HEK 293T Cells (hACE2-293T), read-out: IC50): 16.7 µM; interaction with remdesivir (additive or synergistic) ([3]; listed as grazoprevir): synergized with remdesivir |
